The nature of series [1]: Terminal elimination half life in iv dosed rat. It is filed as ADME, organism-based. To be noted: in vivo, read-out: beta t1/2 (converted).
A short description of series [2]: Plasma concentration in human at 200 mg administered with fat meal every 12 hrs for 8 days measured on day 1 after 12 hrs of first dose. In kind it is ADME, organism-based.
A short description of series [3]: Apparent oral clearance in human at 100 mg administered with fat meal every 12 hrs for 8 days measured on day 1. In kind it is ADME, organism-based. The conditions noted are these: in vivo.
In series [4] the test system is Homo sapiens. Kind of series: Toxicity in human assessed as headache at 50 to 200 mg administered as single dose. It is filed as organism-based. To be noted: in vivo.
The test system of series [5] is Homo sapiens. The experiment in a line: Toxicity in human assessed as changes in vital sign at 50 to 400 mg after sequential repeated administration for 8 days. It is filed as organism-based. To be noted: in vivo, 192 h.
Series [6] is described as follows: AUC (0 to infinity) in fasted human at 100 mg administered as single dose. It is filed as ADME, organism-based. Details: dose 100 mg, time infinity. The conditions noted are these: plasma.
The nature of series [7]: Tmax in fasted human at 200 mg administered as single dose. It is filed as ADME, organism-based. The conditions noted are these: in vivo.
Series [8] can be described thus: Terminal elimination half life in fasted human at 100 mg administered as single dose. It is filed as ADME, organism-based. The conditions noted are these: in vivo, read-out: beta t1/2 (converted).

Experimental findings from ChEMBL document CHEMBL1151440, “Safety and pharmacokinetics of GSK364735, a human immunodeficiency virus type 1 integrase inhibitor, following single and repeated administration in healthy adult subjects” (Antimicrob Agents Chemother, 2007) are described below.

What is called CL/F is clearance divided by bioavailability, as obtained after extravascular dosing. Usually AUC(0-inf) stands for the area under the concentration-time curve extrapolated to infinity. Read a high AUC(0-inf) as high exposure. The Tmax is the time from dosing to the highest level. `Cn1c(=O)c(C(=O)NCCO)c(O)c2ncc(Cc3ccc(F)cc3)cc21` [GSK-364735]: the half-life in series [1] was 1.5 h; in series [8], 2.9 h. This molecule had a concentration at 12 h in series [2] of 230 ng/mL. The CL/F in series [3] was 147 mL/min. For the same molecule, the figures for the Activity in the series with Homo sapiens [4] and with Homo sapiens [5] were 4% and “Non-toxic”, respectively. This molecule returned an AUC(0-inf) in series [6] of 5200 ng·h/mL. The Tmax in series [7] came out at 2.5 h.
